Results reported in article PMC6328288 (Journal of Medicinal Chemistry, 2018).

Tests used:
human CCR1 [1] = biological target: T1, human CCR1 (Homo sapiens, UniProt P32246); test: [3H]-CCR2-RA-[R] displacement binding assay on U2OS-CCR1 membranes; conditions: for displacement of [3H]-CCR2-RA-[R] from CCR1 (in words): concentration-dependent
T1 sequence (P32246 1-355): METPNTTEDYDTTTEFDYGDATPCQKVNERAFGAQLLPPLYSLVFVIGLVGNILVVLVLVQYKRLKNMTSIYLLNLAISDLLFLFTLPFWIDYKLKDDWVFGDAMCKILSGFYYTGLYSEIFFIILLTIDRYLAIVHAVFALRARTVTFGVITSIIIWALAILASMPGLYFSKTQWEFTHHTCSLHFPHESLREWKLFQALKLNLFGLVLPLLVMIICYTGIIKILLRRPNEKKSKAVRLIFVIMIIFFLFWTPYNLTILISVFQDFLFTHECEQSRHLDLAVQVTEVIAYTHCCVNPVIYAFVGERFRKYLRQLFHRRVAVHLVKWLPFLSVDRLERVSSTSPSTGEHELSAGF

human CCR2 [2] = biological target: T2, human CCR2 (Homo sapiens, UniProt P41597); test: [3H]-CCR2-RA-[R] displacement binding assay on U2OS-CCR2 membranes; conditions: for displacement at 1 μM (%) / pKi ± SEM: CCR2; for displacement at 1 μM (%): [3H]-CCR2-RA-[R] displacement by 1 μM compound, mean of two experiments; for pKi ± SEM: [3H]-CCR2-RA-[R] binding, U2OS membranes, 25 °C
T2 sequence (P41597 1-360 isoform P41597-2): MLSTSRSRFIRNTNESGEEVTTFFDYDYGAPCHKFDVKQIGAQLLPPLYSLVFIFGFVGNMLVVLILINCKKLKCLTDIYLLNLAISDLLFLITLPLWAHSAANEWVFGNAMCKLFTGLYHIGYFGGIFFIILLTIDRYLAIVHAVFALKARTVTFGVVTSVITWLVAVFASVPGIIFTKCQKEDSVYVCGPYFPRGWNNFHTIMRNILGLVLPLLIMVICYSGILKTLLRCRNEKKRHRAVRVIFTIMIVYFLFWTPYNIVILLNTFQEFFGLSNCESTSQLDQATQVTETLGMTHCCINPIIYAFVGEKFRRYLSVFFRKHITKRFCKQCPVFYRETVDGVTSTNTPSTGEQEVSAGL

human CCR1 [3] = biological target: T1, human CCR1; test: [35S]GTPγS binding assay on U2OS-CCR1 membranes; format: biochemical; conditions: for Hill slope, CCR1: CCL3-induced, 8 nM CCL3
human CCR2 [4] = biological target: T2, human CCR2; test: [35S]GTPγS binding assay on U2OS-CCR2 membranes; format: biochemical; conditions: for Hill slope, CCR2: CCL2-induced, 20 nM CCL2
human CCR1 [5] = biological target: T1, human CCR1; test: Inhibition of basal [35S]GTPγS binding in absence of CCL3 in U2OS-CCR1; format: biochemical; conditions: for fold higher potency as inverse agonist than as antagonist: CCR1, absence versus presence of CCL3; for fold difference between functional and binding assays: CCR1, [35S]GTPγS potency (absence or presence of CCL3) versus binding affinity
[6] = CCR1, [3H]-CCR2-RA-[R] binding, U2OS membranes, 25 °C

For `C[C@@H]1CN(Cc2ccc(F)cc2)CCN1C(=O)COc1ccc(Cl)cc1NC(N)=O` [BX471], the “[3H]-CCR2-RA-[R] specific binding in presence of compound (absence = 100%)” value (human CCR1 [1]; 10 μM BX471, 6 nM radioligand, U2OS-CCR1) was 116 ± 2%, the “[3H]-CCR2-RA-[R] binding enhanced up to” value (human CCR1 [1]; U2OS-CCR1, increasing concentrations) was “up to 120%” and the “displacement of [3H]-CCR2-RA-[R] from CCR1 (in words)” value (human CCR1 [1]; U2OS-CCR1) was “not able to displace”.
With `CC(=O)C1=C(O)C(=O)N(c2ccc(C)cc2)C1c1ccc(C)cc1` (stereo not shown) [Compound 10, 4-Acetyl-3-hydroxy-5-(4-methylphenyl)-1-(4-methylphenyl)-1,5-dihydro-2H-pyrrol-2-one] the “displacement at 1 μM (%)” value (human CCR2 [2]) was 36% (42, 31).
With `COc1ccc(C2C(C(C)=O)=C(O)C(=O)N2c2ccc(C)cc2)cc1` (stereo not shown) [Compound 11, 4-Acetyl-3-hydroxy-5-(4-methoxyphenyl)-1-(4-methylphenyl)-1,5-dihydro-2H-pyrrol-2-one] the “displacement at 1 μM (%)” value (human CCR2 [2]) was 5% (5, 5).
For `CC(=O)C1=C(O)C(=O)N(c2ccc(C)cc2)C1c1cccc(C)c1` (stereo not shown) [Compound 14, 4-Acetyl-3-hydroxy-5-(3-methylphenyl)-1-(4-methylphenyl)-1,5-dihydro-2H-pyrrol-2-one], the “displacement at 1 μM (%)” value (human CCR2 [2]) was 11% (14, 8).
In the case of `COc1cccc(C2C(C(C)=O)=C(O)C(=O)N2c2ccc(C)cc2)c1` (stereo not shown) [Compound 15, 4-Acetyl-3-hydroxy-5-(3-methoxyphenyl)-1-(4-methylphenyl)-1,5-dihydro-2H-pyrrol-2-one], the “displacement at 1 μM (%)” value (human CCR2 [2]) is reported as 0% (3, −3).
In the case of `CCC(=O)C1=C(O)C(=O)N(c2ccc(C)cc2)C1C1CCCCC1` (stereo not shown) [Compound 18, 5-Cyclohexyl-3-hydroxy-4-propionyl-1-(4-methylphenyl)-1,5-dihydro-2H-pyrrol-2-one], the “pKi ± SEM” value (human CCR1 [1]; [6]) is reported as 7.52 ± 0.01.
In the case of `Cc1ccc(N2C(=O)C(O)=C(C(=O)C3CC3)C2C2CCCCC2)cc1` (stereo not shown) [Compound 22, 5-Cyclohexyl-4-(cyclopropanecarbonyl)-3-hydroxy-1-(4-methylphenyl)-1,5-dihydro-2H-pyrrol-2-one], the “selectivity for CCR1 over CCR2” value (human CCR1 [1]; from binding affinities) is reported as 8 fold.
With `CCOC(=O)C1=C(O)C(=O)N(c2ccc(C)cc2)C1C1CCCCC1` (stereo not shown) [Compound 24, Ethyl 2-Cyclohexyl-4-hydroxy-5-oxo-1-(4-methylphenyl)-2,5-dihydro-1H-pyrrole-3-carboxylate] the “displacement at 1 μM (%)” value (human CCR2 [2]) was 31% (36, 26).
In the case of `CC(=O)C1=C(O)C(=O)N(c2ccc(Cl)cc2)C1C1CCCCC1` (stereo not shown) [Compound 30, 4-Acetyl-1-(4-chlorophenyl)-5-cyclohexyl-3-hydroxy-1,5-dihydro-2H-pyrrol-2-one], the Ki (human CCR2 [2]) is reported as roughly 20 nM and the “pKi ± SEM” value (human CCR2 [2]) is reported as 7.73 ± 0.08.
`CC(=O)C1=C(O)C(=O)N(c2ccc(Br)cc2)C1C1CCCCC1` (stereo not shown) [Compound 31, 4-Acetyl-1-(4-bromophenyl)-5-cyclohexyl-3-hydroxy-1,5-dihydro-2H-pyrrol-2-one] showed a Ki (human CCR2 [2]) of roughly 20 nM.
In the case of `CC(=O)C1=C(O)C(=O)N(c2ccc(Br)cc2F)C1C1CCCCC1` (stereo not shown) [Compound 39, 4-Acetyl-1-(4-bromo-2-fluorophenyl)-5-cyclohexyl-3-hydroxy-1,5-dihydro-2H-pyrrol-2-one], the “Hill slope, CCR1” value (human CCR1 [3]) is reported as “–0.62 ± 0.05”, the “Hill slope, CCR2” value (human CCR2 [4]) is reported as “–0.94 ± 0.18” and the “fold higher potency as inverse agonist than as antagonist” value (human CCR1 [5]) is reported as 3 fold.
`CC(=O)C1=C(O)C(=O)N(c2ccc(C)c(C)c2)C1C1CCCCC1` (stereo not shown) [Compound 40, 4-Acetyl-5-cyclohexyl-1-(3,4-dimethylphenyl)-3-hydroxy-1,5-dihydro-2H-pyrrol-2-one] was tested, and the “pKi ± SEM” value (human CCR1 [1]; [6]) was 7.37 ± 0.03 and the “pKi ± SEM” value (human CCR2 [2]) was 7.75 ± 0.02.
With `CC(=O)C1=C(O)C(=O)N(c2ccc(Cl)c(C)c2)C1C1CCCCC1` (stereo not shown) [Compound 41, 4-Acetyl-1-(4-chloro-3-methylphenyl)-5-cyclohexyl-3-hydroxy-1,5-dihydro-2H-pyrrol-2-one] the “Hill slope, CCR1” value (human CCR1 [3]) was “–0.72 ± 0.08”, the “Hill slope, CCR2” value (human CCR2 [4]) was “–0.88 ± 0.13” and the “fold higher potency as inverse agonist than as antagonist” value (human CCR1 [5]) was roughly 10 fold.
For `O=C(C1=C(O)C(=O)N(c2ccc(Br)cc2F)C1C1CCCCC1)C1CC1` (stereo not shown) [Compound 43, 1-(4-Bromo-2-fluorophenyl)-5-cyclohexyl-4-(cyclopropanecarbonyl)-3-hydroxy-1,5-dihydro-2H-pyrrol-2-one], the “Hill slope, CCR1” value (human CCR1 [3]) was “–0.73 ± 0.02”, the “Hill slope, CCR2” value (human CCR2 [4]) was “–0.80 ± 0.13” and the “fold difference between functional and binding assays” value (human CCR1 [5]) was “more than 130 fold”. For the same compound, the “pKi ± SEM” value (human CCR2 [2]) was 7.82 ± 0.04.
In the case of `O=C(C1=C(O)C(=O)N(c2ccc(Br)cc2F)C1C1CCCCC1)c1ccccc1` (stereo not shown) [Compound 44, 4-Benzoyl-1-(4-bromo-2-fluorophenyl)-5-cyclohexyl-3-hydroxy-1,5-dihydro-2H-pyrrol-2-one], the “pKi ± SEM” value (human CCR1 [1]; [6]) is reported as 7.56 ± 0.04.
With `O=C(C1=C(O)C(=O)N(c2ccc(Br)cc2F)C1c1cccc(Br)c1)C1CC1` (stereo not shown) [Compound 45, 1-(4-Bromo-2-fluorophenyl)-5-(3-bromophenyl)-4-(cyclopropanecarbonyl)-3-hydroxy-1,5-dihydro-2H-pyrrol-2-one] the “Hill slope, CCR1” value (human CCR1 [3]) was “–0.93 ± 0.01”, the “Hill slope, CCR2” value (human CCR2 [4]) was “–1.20 ± 0.08” and the “fold difference between functional and binding assays” value (human CCR1 [5]) was “more than 130 fold”.
With `CC(=O)C1=C(O)C(=O)N(c2ccc(Br)cc2F)C1c1cccc(Br)c1` (stereo not shown) [Compound 46, 4-Acetyl-1-(4-bromo-2-fluorophenyl)-5-(3-bromophenyl)-3-hydroxy-1,5-dihydro-2H-pyrrol-2-one] the “pKi ± SEM” value (human CCR1 [1]; [6]) was 7.19 ± 0.02.
With `COC(=O)c1c(-c2ccno2)[nH]c(=S)n1CCCc1ccc(F)c(F)c1` [JNJ-27141491, (S)-3-[3,4-difluorophenyl)-propyl]-5-isoxazol-5-yl-2-thioxo-2,3-dihydro-1H-imidazole-4-carboxyl acid methyl ester] the Ki (human CCR1 [1]; [6]) was 138 nM, the “pKi ± SEM” value (human CCR1 [1]; [6]) was 6.9 ± 0.06 and the “displacement of [3H]-CCR2-RA-[R] from CCR1 (in words)” value (human CCR1 [1]; U2OS-CCR1) was “fully displaced”.
In the case of “CCL2: chemokine ligand activating CCR2, purchased from PeproTech”, the “pEC50, stimulation of [35S]GTPγS binding” value (human CCR2 [4]; U2OS-CCR2) is reported as 8.3 ± 0.09 and the EC50 (human CCR2 [4]; read-out: potency, stimulation of [35S]GTPγS binding, U2OS-CCR2) is reported as 5 nM.
“CCL3: chemokine ligand activating CCR1, purchased from PeproTech” was tested, and the “pEC50, stimulation of [35S]GTPγS binding” value (human CCR1 [3]; U2OS-CCR1) was 8.9 ± 0.06 and the EC50 (human CCR1 [3]; read-out: potency, stimulation of [35S]GTPγS binding, U2OS-CCR1) was 1.3 nM.
